Assay results published in PMC7603469, “The biologically functional identification of a novel TIM3-binding peptide P26 in vitro and in vivo” (Cancer Chemotherapy and Pharmacology, 2020).
Where a SMILES comes first, the peptide text is derived from it.

What was measured:
TIM3 = molecular target: T1, TIM3 (Mus musculus, UniProt Q8VIM0); experiment: SPR binding, TIM3 immobilized on chip; settings: TIM3 50 μg/mL immobilized on nanogold sensor chip (EDC/NHS), flow rate 20 μL/min for about 7 min, read-out: affinity constant (KD)
T1 construct: purchased Chimerigen CHI-MF-210T3-C050
Procedure: Surface plasmon resonance (SPR) assay. The affinity identification between P26 and TIM3 was performed by immobilizing the TIM3 protein (50 μg/mL) on the surface of the nanogold sensor chip after the chip was activated by EDC/NHS. P26/Gal-9 competition assay was performed by immobilizing Gal-9 protein (25 µg/mL) on the sensor chip. Each sample was injected at a flow rate of 20 μL/min for about 7 min. KD, ka, and kd were calculated by Trace Drawer Evaluation (version 2.0).

MC38-hPD-L1 tumor = experiment: Tumor growth assay, MC38-hPD-L1 tumor-bearing B-hTIM-3 humanized mice; type: in vivo, mouse; settings: P26 5 mg/kg/d, ATE 10 mg/kg/4d, n = 7
Procedure: C57BL/6 mice transgenic for B-hHAVCR2 (TIM3) (Biocytogen, Beijing, China) were used to evaluate the anti-tumor activity of P26 in vivo. After 1 week of adaptive feeding, 6-week-old female mice were inoculated with 0.1 mL of MC38-hPD-L1 cells (1 × 10^6 cells) by subcutaneous injection on the right scapula followed by the measurements of tumor volume and body weight. When the average tumor volume reached about 80 mm^3, mice were randomly divided into […] groups and administrated with different drugs: (A) PBS (control), (B) ATE (PD-L1 inhibitor Atezolizumab, 10 mg/kg/4d, as the positive group), (C) P26 (5 mg/kg/d), and (D) P26 (5 mg/kg/d) plus ATE (10 mg/kg/4d). The weight and tumor volume of the mice were measured twice a week. When the body weight loss (% BWL) was above 20%, the drug was discontinued, and then, ethically acceptable execution to mice was adopted upon the failure of weight loss recovery in 72 h. The weight and volume of tumors were then analyzed.

T1 sequence (Q8VIM0 20-193 limits assumed): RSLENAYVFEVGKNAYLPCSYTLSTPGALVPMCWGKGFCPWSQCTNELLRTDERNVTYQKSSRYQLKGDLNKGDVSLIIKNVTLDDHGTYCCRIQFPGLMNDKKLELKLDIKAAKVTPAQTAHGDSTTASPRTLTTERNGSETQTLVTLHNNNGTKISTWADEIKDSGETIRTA

Kd (TIM3) [µM]	Compound	inhibition of MC38-hPD-L1 tumor growth vs solvent control (in words) (MC38-hPD-L1 tumor; tumor nodules on day 36, Fig. 4b, c)	tumor volume inhibition rate (MC38-hPD-L1 tumor; vs PBS control, start day 10, sacrificed day 36, Fig. 4d) [%]
34.4	CC[C@H](C)[C@H](NC(=O)[C@H](Cc1c[nH]cn1)NC(=O)[C@H](CCSC)NC(=O)[C@@H](NC(=O)[C@@H](NC(=O)[C@H](CC(C)C)NC(=O)[C@@H]1CCCN1C(=O)[C@@H](NC(=O)[C@H](CC(C)C)NC(=O)CN)[C@@H](C)CC)[C@@H](C)O)[C@@H](C)O)C(=O)NCC(=O)N[C@@H](CCCCN)C(=O)O [Peptide P26] (H-GLIPLTTMHIGK-OH)		
	ATE: PD-L1 inhibitor Atezolizumab, positive group	significantly inhibit the growth	43.71
